Test system: formalin paw test in mice
Assay: formalin paw test (pain response)
Type: in vivo
Procedure: AAK1 homozygous (−/−) and their wild-type (+/+) littermates were tested using the formalin paw test in order to assess their acute and tonic nociceptive responses. For these tests, Automatic Nociception Analyzers (purchased from the Ozaki lab at University of California, San Diego) were used. A metal band was placed around the left hind paw of each mouse 30 minutes prior to testing. After the 30-minute acclimation period, 20 μl of 5% formalin is subcutaneously injected in the dorsal surface of the left hind paw. Mice were individually housed in cylindrical chambers for 45 minutes. Fresh 5% formalin solution was prepared by diluting formaldehyde (Formalde-fresh 20%, Fisher Scientific, Fair Lawn, N.J.) with distilled water. Investigatory compounds were administered 30 minutes prior to formalin injection.
A computer recorded flinches per minute, total flinches for phase I (acute phase=first 8 minutes), and total flinches for phase II (tonic phase=time between minutes 20-40) through an electromagnetic field. See Yaksh T L, Ozaki G, McCumber D, Rathbun M, Svensson C, Malkmus S, Yaksh M C. An automated flinch detecting system for use in the formalin nociceptive bioassay. J Appl Physiol., 2001; 90:2386-402.
The same test was used to confirm that the administration of an AAK1 inhibitor can also affect pain response.
A compound of the disclosure was tested in this assay at different doses. Gabapentin and pregabalin were used as positive controls. Results are shown below in Table 2, wherein the effect of gabapentin at 200 mg/kg is considered a 100% response, the % response for the other compounds is relative to the 200 mg/kg dose of gabapentin, “sc” means subcutaneous administration; “po” means oral administration.

[1] = 50 mg/kg sc, relative to gabapentin 200 mg/kg = 100%

Row | Compound | Response [1] | Response (200 mg/kg sc, considered a 100% response)
1 | NCC1(CC(=O)O)CCCCC1 [Gabapentin, gabapentin] | 60% | 100%
2 | CC(C)C[C@H](CN)CC(=O)O [Pregabalin, pregabalin] | 90% | –

Reference: patent publication US8901305B2, “Aryl lactam kinase inhibitors” (Bristol-Myers Squibb Company, priority 2012, dated 2014)
